One data set in a line: in vitro. The following applies: human.
In data set [1] the test system is SARS-CoV-2 B.1.1.7 lineage. In words: microbe, parasite or virus in culture. The class given is cell-based.
Data set [2] in a line: Cytotoxicity in HeLa cells without addition of OC43 virus (in parallel). As to conditions: human, HeLa cells, without OC43 virus.
The subject of data set [3] is human beta-coronavirus OC43. Put plainly: OC43 Coronavirus Assay in HeLa cells (antiviral, cytopathic effect, cell-titer-glo). The following applies: Betacoronavirus 1, OC43, HeLa, Table B; OC43 coronavirus in HeLa cells, class symbols; read-out: EC50. In kind it is cell-based. On the technique in general: Protection from cytopathic effect is a common read-out in antiviral testing.

Another data set addresses SARS-Cov-2 3CLpro (Severe acute respiratory syndrome coronavirus 2, UniProt P0DTD1). Put plainly: biochemical. The following applies: Table A, class symbols, read-out: SARS-Cov-2 (IC50).
Where [4] appears, read: Severe acute respiratory syndrome coronavirus 2, Table C, SARS-CoV-2 B.1.1.7 in A549-dual_ACE2_TMPRSS2 cells, class symbols, read-out: A549-dual_ACE2_TMPRSS2 (EC50).
The mark [5] stands for this setting: Severe acute respiratory syndrome coronavirus 2, Table C, SARS-CoV-2 B.1.1.7 in A549-dual_ACE2_TMPRSS2 cells, cells given as a bound, read-out: A549-dual_ACE2_TMPRSS2 (EC50).

From patent publication US20240199647A1, “ANTI-VIRAL COMPOUNDS” (Aligos Therapeutics, Inc., priority 2022, published 2024) come the findings set out here.

Read-outs that look alike come from different tables or passages of the source.

In the data set “in vitro”, `CC(C)C[C@@H](C(=O)N1C[C@]2(CCNC2=O)C[C@H]1C#N)N(C)C(=O)[C@H](C)NC(=O)C(F)(F)F` [Compound 8, (S)—N—((S)-1-((3S,5S)-3-cyano-6-oxo-2,7-diazaspiro[4.4]nonan-2-yl)-4-methyl-1-oxopentan-2-yl)-N-methyl-2-(2,2,2-trifluoroacetamido)propanamide] had a CC50 above 1000 nM. The EC50 in data set [1] (setting [4]) and in data set [3] was 1000 to 10000 nM each time. This compound also registered a CC50 at 6 days in data set [2] above 10000 nM. The IC50 (as a rule, the point on the concentration scale where inhibition reaches its midpoint) on SARS-Cov-2 3CLpro lay in the range of 20 to 200 nM.
Turning to `CC(C)C[C@@H](C(=O)N1C[C@]2(CCCNC2=O)C[C@H]1C#N)N(C)C(=O)[C@H](C)NC(=O)C(F)(F)F` [Compound 11], in the data set “in vitro”, the CC50 is above 1000 nM. Also, the EC50 (in general, the midpoint of the concentration-response curve) in data set [1] (setting [4]) lay within 100 to 1000 nM; in data set [3], 1000 to 10000 nM. The CC50 at 6 days in data set [2] is above 10000 nM. Besides, the IC50 at SARS-Cov-2 3CLpro was in the range of 20 to 200 nM.
In the same order, the values of `CC(C)C[C@@H](C(=O)N1C[C@@]2(C[C@H]1C#N)N=C(c1ccccc1)NC2=O)N(C)C(=O)[C@H](C)NC(=O)C(F)(F)F` [Compound 12, (2S)—N-[(2S)-1-[(5R,8S)-8-cyano-4-oxo-2-phenyl-1,3,7-triazaspiro[4.4]non-1-en-7-yl]-4-methyl-1-oxopentan-2-yl]-N-methyl-2-(2,2,2-trifluoroacetamido)propanamide] are above 1000 nM, 1000 to 10000 nM, 1000 to 10000 nM, above 10000 nM and 20 to 200 nM.
The compound `CC(C)C[C@@H](C(=O)N1C[C@@]2(C[C@H]1C#N)CC1(CC1)NC2=O)N(C)C(=O)[C@H](C)NC(=O)C(F)(F)F` [Compound 13, (S)—N—((S)-1-((5R,8S)-8-cyano-10-oxo-7,11-diazadispiro[2.1.4^5.2^3]undecan-7-yl)-4-methyl-1-oxopentan-2-yl)-N-methyl-2-(2,2,2-trifluoroacetamido)propanamide] showed a CC50 in the data set “in vitro” above 1000 nM. Besides, the half-maximal effective concentration (EC50) in data set [1] (Severe acute respiratory syndrome coronavirus 2, read-out: A549-dual_ACE2_TMPRSS2 (EC50)) lay in the range of 100 to 1000 nM; in data set [3], 100 to 1000 nM. The compound further gave a CC50 at 6 days in data set [2] above 10000 nM. Moreover, the IC50 at SARS-Cov-2 3CLpro was below 20 nM.
On to `CN(C(=O)[C@H](CC1CC1)NC(=O)C(F)(F)F)[C@@H](CC1CC1)C(=O)N1C[C@@]2(C[C@H]1C#N)Oc1ccc(F)cc1NC2=O` [Compound 15, (S)—N—((S)-1-((2R,5'S)-5′-cyano-6-fluoro-3-oxo-3,4-dihydrospiro[benzo[b][1,4]oxazine-2,3′-pyrrolidin]-1′-yl)-3-cyclopropyl-1-oxopropan-2-yl)-3-cyclopropyl-N-methyl-2-(2,2,2-trifluoroacetamido)propanamide], for which the CC50 in the data set “in vitro” was above 1000 nM. Besides, the EC50 in data set [1] (setting [4]) and in data set [3] was below 100 nM each time. Also, in data set [2], the CC50 at 6 days is above 10000 nM. For the same compound, the IC50 on SARS-Cov-2 3CLpro is below 20 nM.
In turn, `CC(C)C[C@@H](C(=O)N1C[C@@]2(C[C@H]1C#N)N=C(C1CC1)NC2=O)N(C)C(=O)[C@H](C)NC(=O)C(F)(F)F` [Compound 16] gave a CC50 in “in vitro” above 1000 nM. The results for the EC50 in data set [1] (setting [5]) and in data set [3] were above 1000 nM and 100 to 1000 nM, respectively. For the same compound, the CC50 at 6 days in data set [2] is above 10000 nM. In addition, the IC50 on SARS-Cov-2 3CLpro was in the range of 20 to 200 nM.
The compound `CC1=N[C@@]2(C[C@@H](C#N)N(C(=O)[C@H](CC(C)C)N(C)C(=O)[C@H](C)NC(=O)C(F)(F)F)C2)C(=O)N1` [Compound 18] yielded a CC50 in “in vitro” above 1000 nM. Moreover, the figures for the EC50 in data set [1] (setting [5]) and in data set [3] were above 1000 nM and 1000 to 10000 nM, respectively. The CC50 at 6 days in data set [2] was above 10000 nM. Moreover, the IC50 at SARS-Cov-2 3CLpro was in the range of 20 to 200 nM.
`CC(C)C[C@@H](C(=O)N1C[C@@]2(C[C@H]1C#N)CC1(CCCC1)NC2=O)N(C)C(=O)[C@H](C)NC(=O)C(F)(F)F` [Compound 19] displayed a CC50 in “in vitro” above 1000 nM. Moreover, the EC50 in data set [1] (setting [4]) and in data set [3] was 100 to 1000 nM throughout. Further, the CC50 at 6 days in data set [2] is above 10000 nM. The IC50 at SARS-Cov-2 3CLpro was in the range of 20 to 200 nM.
`CC(C)C[C@@H](C(=O)N1C[C@]2(CCC3(CC3)NC2=O)C[C@H]1C#N)N(C)C(=O)[C@H](C)NC(=O)C(F)(F)F` [Compound 20] displayed a CC50 in the data set “in vitro” above 1000 nM. Moreover, the 50% effective concentration (EC50) lay within 100 to 1000 nM in data set [1] (setting [4]) and 1000 to 10000 nM in data set [3]. This compound also registered a CC50 at 6 days in data set [2] above 10000 nM. Besides, the IC50 at SARS-Cov-2 3CLpro was 20 to 200 nM.
In the same order, the values of `CC(C)C[C@@H](C(=O)N1C[C@]2(CC(C)NC2=O)C[C@H]1C#N)N(C)C(=O)[C@H](C)NC(=O)C(F)(F)F` (stereo partly drawn) [Compound 21, (2S)—N-((2S)-1-((3S,5S)-3-cyano-8-methyl-6-oxo-2,7-diazaspiro[4.4]nonan-2-yl)-4-methyl-1-oxopentan-2-yl)-N-methyl-2-(2,2,2-trifluoroacetamido)propanamide] are above 1000 nM, 100 to 1000 nM, 100 to 1000 nM, above 10000 nM and below 20 nM.
Take `CC(C)C[C@@H](C(=O)N1C[C@@]2(C[C@H]1C#N)CC(C)(C)NC2=O)N(C)C(=O)[C@H](C)NC(=O)C(F)(F)F` [Compound 22]: in “in vitro”, the CC50 was above 1000 nM. In addition, the EC50 in data set [1] (setting [5]) is above 1000 nM; in data set [3], 1000 to 10000 nM. For the same compound, the CC50 at 6 days in data set [2] is above 10000 nM. The concentration for half-maximal inhibition (IC50) on SARS-Cov-2 3CLpro fell in the range of 20 to 200 nM.
`CCC1C[C@@]2(C[C@@H](C#N)N(C(=O)[C@H](CC(C)C)N(C)C(=O)[C@H](C)NC(=O)C(F)(F)F)C2)C(=O)N1` (stereo partly drawn) [Compound 23] showed a CC50 in “in vitro” above 1000 nM. The EC50 in data set [1] (setting [4]) and in data set [3] was 100 to 1000 nM throughout. This compound registered a CC50 at 6 days in data set [2] above 10000 nM. Also, the IC50 at SARS-Cov-2 3CLpro is below 20 nM.
As to `CC(C)C[C@@H](C(=O)N1C[C@]2(CC(c3ccccc3)NC2=O)C[C@H]1C#N)N(C)C(=O)[C@H](C)NC(=O)C(F)(F)F` (stereo partly drawn) [Compound 24], the CC50 in the data set “in vitro” was above 1000 nM. Also, the EC50 in data set [1] (setting [4]) was in the range of 100 to 1000 nM; in data set [3], 1000 to 10000 nM. In data set [2], the CC50 at 6 days is above 10000 nM. Moreover, at SARS-Cov-2 3CLpro, the IC50 is below 20 nM.
For `CC(C)C[C@@H](C(=O)N1C[C@]2(C[C@H]1C#N)C(=O)Nc1cc(-c3ccccc3)nn12)N(C)C(=O)[C@H](C)NC(=O)C(F)(F)F` [Compound 25, (S)—N—((S)-1-((3R,5'S)-5′-cyano-2-oxo-6-phenyl-1,2-dihydrospiro[imidazo[1,2-b]pyrazole-3,3′-pyrrolidin]-1′-yl)-4-methyl-1-oxopentan-2-yl)-N-methyl-2-(2,2,2-trifluoroacetamido)propanamide] the same measures were above 1000 nM, 100 to 1000 nM, 100 to 1000 nM, above 10000 nM and 20 to 200 nM.
In turn, `CC(C)C[C@@H](C(=O)N1C[C@]2(C[C@H]1C#N)C(=O)Nc1cc(Br)nn12)N(C)C(=O)[C@H](C)NC(=O)C(F)(F)F` [Compound 26, (2S)—N-[(2S)-1-[(3R,5'S)-6-bromo-5′-cyano-2-oxo-1H-spiro[pyrazolo[1,5-a]imidazole-3,3′-pyrrolidin]-1′-yl]-4-methyl-1-oxopentan-2-yl]-N-methyl-2-(2,2,2-trifluoroacetamido)propanamide] registered a CC50 in the data set “in vitro” above 1000 nM. The figures for the concentration giving a half-maximal response (EC50) in data set [1] (setting [5]) and in data set [3] were above 1000 nM and 100 to 1000 nM, respectively. The compound further displayed a CC50 at 6 days in data set [2] above 10000 nM. On SARS-Cov-2 3CLpro, the IC50 was 20 to 200 nM.
`CC(C)C[C@@H](C(=O)N1C[C@@]2(C[C@H]1C#N)N=C(C(C)(C)C)NC2=O)N(C)C(=O)[C@H](C)NC(=O)C(F)(F)F` [Compound 47] came in with a CC50 in “in vitro” above 1000 nM. The concentration for a half-maximal effect (EC50) in data set [1] (setting [4]) is 100 to 1000 nM; in data set [3] it was 1000 to 10000 nM. The CC50 at 6 days in data set [2] is above 10000 nM. Also, the IC50 at SARS-Cov-2 3CLpro is 20 to 200 nM.
For `CC(C)C[C@@H](C(=O)N1C[C@@]2(C[C@H]1C#N)Oc1cc(F)c(F)cc1NC2=O)N(C)C(=O)[C@H](C)NC(=O)C(F)(F)F` [Compound 48], in the data set “in vitro”, the CC50 was above 1000 nM. Besides, the EC50 in data set [1] (setting [4]) and in data set [3] was 100 to 1000 nM each time. The compound also showed a CC50 at 6 days in data set [2] above 10000 nM. In addition, at SARS-Cov-2 3CLpro, the IC50 is below 20 nM.
With `CC(C)C[C@@H](C(=O)N1C[C@@]2(C[C@H]1C#N)Oc1c(F)cc(F)cc1NC2=O)N(C)C(=O)[C@H](C)NC(=O)C(F)(F)F` [Compound 49], the CC50 in “in vitro” was above 1000 nM. Moreover, the half-maximal effective concentration (EC50) in data set [1] (setting [4]) and in data set [3] was 100 to 1000 nM throughout. Besides, the CC50 at 6 days in data set [2] was above 10000 nM. Moreover, the IC50 at SARS-Cov-2 3CLpro is below 20 nM.
As for `CN(C(=O)[C@H](CC1CC1)NC(=O)C(F)(F)F)[C@@H](CC1CC1)C(=O)N1C[C@@]2(C[C@H]1C#N)Oc1cc(F)ccc1NC2=O` [Compound 50], in “in vitro”, the CC50 is above 1000 nM. Moreover, the EC50 in data set [1] (setting [4]) and in data set [3] was below 100 nM in each case. In data set [2], this compound showed a CC50 at 6 days above 10000 nM. Further, the IC50 on SARS-Cov-2 3CLpro was below 20 nM.
Turning to `CC(C)C[C@@H](C(=O)N1C[C@@]2(CC1C#N)Oc1cc(F)cc(F)c1NC2=O)N(C)C(=O)[C@H](C)NC(=O)C(F)(F)F` (stereo partly drawn) [Compound 51], the CC50 in “in vitro” was above 1000 nM. The EC50 in data set [1] (setting [4]) and in data set [3] was 100 to 1000 nM in each case. Moreover, the CC50 at 6 days in data set [2] was above 10000 nM. For the same compound, the IC50 at SARS-Cov-2 3CLpro is below 20 nM.
In the case of `CN(C(=O)[C@H](CC1CC1)NC(=O)C(F)(F)F)[C@@H](CC1CC1)C(=O)N1C[C@@]2(C[C@H]1C#N)Oc1ccc(F)c(F)c1NC2=O` [Compound 52], the CC50 in the data set “in vitro” is above 1000 nM. Also, the EC50 in data set [1] (setting [4]) and in data set [3] was below 100 nM each time. Moreover, the CC50 at 6 days in data set [2] was above 10000 nM. The IC50 at SARS-Cov-2 3CLpro is below 20 nM.
